Results: patent US20250223270A1, “Sulfonamide Compounds and Use Thereof” (Taiho Pharmaceutical Co., Ltd., priority 2017, published 2025)
Converted amounts (≈) assume the structure as drawn. “Also recorded” adds a separate entry of the source.

Legend:
Type in all cases: physicochemical
[1] = Hygroscopicity, moisture adsorption/desorption test; settings: for hygroscopicity: moisture adsorption/desorption test, FIG. 8; for mass change in moisture adsorption/desorption test: relative humidity of 95%, 25° C.
Method: The moisture adsorption/desorption test was carried out according to the following conditions.
Approximately 10 to 15 mg of the sample was filled in a dedicated quartz holder, and the weight of each sample at each humidity was continuously measured and recorded under the following conditions.

[2] = Charging property (adhesion to spatula or glass bottle); settings: adhesion to a spatula or a glass bottle
[3] = Stability test, 40° C./75% RH, analogous substances by HPLC
Method: (§1) The amount of analogous substances in the sample solution was measured by HPLC analysis. The handling of the device including data processing was in accordance with the manual provided with the device. (i.e., Prominence-i). About 2 mg of the exemplary sample of the present invention was dissolve in 4 mL of mobile phase A/mobile phase B mixture (17:3), and the resulting mixture was used as sample solution. • Column: CAPCELL PAK ADME manufactured by Shiseido (4.6×150 mm, 3 μm) • UV detection: 220 nm • Column temperature: 40° C. • Column flow rate: 1.0 mL/min • Mobile phase: A; 5 mM phosphate buffer, pH 6.2/Acetonitrile (4:1) • B: acetonitrile • Injection volume: 5 μL • Sample cooler temperature: 5° C. • Collection time: 40 minutes
(§2) The solid stability of the exemplary sample of the present invention and the free form obtained above was tested after the sample was stored at 40° C./75% RH (closed and open condition) for 2 weeks or 4 weeks. Open condition means that the lid of the glass bottle was removed and covered with Kimwipe. • Measurement points: 2 weeks and 4 weeks • Storage amount: about 50 to 60 mg • Storage container: brown glass bottle

[4] = Optical purity stability by chiral HPLC; settings: 40° C./75% RH (closed and open condition), 24 hours
Method: The optical purity was also measured by the following HPLC condition • Detector: UV at 240 nm • Column: […] IE (4.6×250 mm, 5 μm)/Daicel corp. • Column temperature: 40° C. • Mobile phase: n-hexane/ethanol/ethanolamine/acetic acid (65:35:0.5:0.2) • Flow rate: 1.0 mL/min • Injection: 5 μL • Sample temperature: 5° C. • Time span of measurement: 40 min
Compound—RR, RS,SS: 0.05%
The optical purity was measured also with added 0.2% optical isomer.
The solid stability of the exemplary sample of the present invention and the free form obtained
above was tested before and after the sample was stored at 40° C./75% RH (closed and open condition) for 24 hours.

[5] = Solid stability test, 40° C./75% RH, 70° C., 80° C., by HPLC
Method: as §2, with “(open condition), 70° C. (closed)” for “(closed”, “80° C. (closed) after” for “open condition) for”, “Kimwipe, 70° C. and 80° C. (closed).” for “Kimwipe.”, “30” for “50 to 60”
as §1, with “6.5/Acetonitrile” for “6.2/Acetonitrile”

[6] = Solubility test, 37° C., 2 hours; settings: for Solubility: 2 hours
Method: About 15 mg of the exemplary sample of the present invention was added to 1 mL of each solvent and was swelled at 37° C. for 2 hours under light resistant condition. After centrifugation, each supernatant was filtered, and 0.7 mL of a mixture of water and acetonitrile (1:1) was added to 0.1 ml of the filtrate.
Following of mobile phase: Control the gradient by mixing the mobile phase A and B as directed in the following table below • Flow rate: 1.0 mL per minutes • Time span of measurement: For 12 minutes after injection

For Cc1ccc(F)c([C@@H](C)[C@H](NS(=O)(=O)c2ccc(Cl)cc2C(N)=O)c2n[nH]c(=O)o2)c1C [Comparative Example, 5-chloro-2-(N-((1S,2R)-2-(6-fluoro-2,3-dimethylphenyl)-1-(5-oxo-4,5-dihydro-1,3,4-oxadiazol-2-yl)propyl)sulfamoyl)benzamide], the hygroscopicity ([1]; listed as free form) was “had hygroscopicity”, the “mass change in moisture adsorption/desorption test” value [1] was “about 3.8%” and the charging property [2] was “high charging property”. For the same molecule, the charging property ([2]; listed as free form) was “high charging property”, the “Chemical Purity (%)” value ([3]; 40° C./75% RH (Closed), 2 wks) was 98.42% and the “Total amount of analogous substances (%)” value ([3]; 40° C./75% RH (Closed), 2 wks) was 1.58%. For the same molecule, the “Chemical Purity (%)” value ([3]; 40° C./75% RH (Closed), 4 wks) was 98.16%, the “Total amount of analogous substances (%)” value ([3]; 40° C./75% RH (Closed), 4 wks) was 1.84% and the “Chemical Purity (%)” value ([3]; 40° C./75% RH (Open), 2 wks) was 98.35%. The “Total amount of analogous substances (%)” value ([3]; 40° C./75% RH (Open), 2 wks) was 1.65%, the “Chemical Purity (%)” value ([3]; 40° C./75% RH (Open), 4 wks) was 98.14% and the “Total amount of analogous substances (%)” value ([3]; 40° C./75% RH (Open), 4 wks) was 1.86%. The “Chemical Purity (%)” value ([3]; Initial) was 98.49%, the “Total amount of analogous substances (%)” value ([3]; Initial) was 1.51% and the “change in the optical purity” value [4] was “No significant change”. For the same molecule, the “Chemical Purity (%)” value ([5]; 40° C. 75% RH (Open), 4wks) was 97.97%, the “Total amount of analogous substances (%)” value ([5]; 40° C. 75% RH (Open), 4wks) was 2.03% and the “Chemical Purity (%)” value ([5]; 70° C. (Closed), 2 wks) was 97.31%. The “Total amount of analogous substances (%)” value ([5]; 70° C. (Closed), 2 wks) was 2.69%, the “Chemical Purity (%)” value ([5]; 70° C. (Closed), 4 wks) was 96.39% and the “Total amount of analogous substances (%)” value ([5]; 70° C. (Closed), 4 wks) was 3.61%. The “Chemical Purity (%)” value ([5]; 80° C. (Closed), 2 wks) was 95.90%, the “Total amount of analogous substances (%)” value ([5]; 80° C. (Closed), 2 wks) was 4.10% and the “Chemical Purity (%)” value ([5]; 80° C. (Closed), 4 wks) was 92.92%. For the same molecule, the “Total amount of analogous substances (%)” value ([5]; 80° C. (Closed), 4 wks) was 7.08%, the “Chemical Purity (%)” value ([5]; Initial) was 98.33% and the “Total amount of analogous substances (%)” value ([5]; Initial) was 1.67%.
In the case of Cc1ccc(F)c([C@@H](C)[C@H](NS(=O)(=O)c2ccc(Cl)cc2C(N)=O)c2n[nH]c(=O)o2)c1C [Exemplary Sample, 5-chloro-2-(N-((1S,2R)-2-(6-fluoro-2,3-dimethylphenyl)-1-(5-oxo-4,5-dihydro-1,3,4-oxadiazol-2-yl)propyl)sulfamoyl)benzamide], the hygroscopicity [1] is reported as “almost no hygroscopicity”, the “mass change in moisture adsorption/desorption test” value [1] is reported as “about 0.1%” and the charging property [2] is reported as “weak charging property; also recorded: low charging property”. For the same molecule, the “Chemical Purity (%)” value ([3]; 40° C./75% RH (Closed), 2 wks) was 98.67%, the “Total amount of analogous substances (%)” value ([3]; 40° C./75% RH (Closed), 2 wks) was 1.33% and the “Chemical Purity (%)” value ([3]; 40° C./75% RH (Closed), 4 wks) was 98.62%. For the same molecule, the “Total amount of analogous substances (%)” value ([3]; 40° C./75% RH (Closed), 4 wks) was 1.38%, the “Chemical Purity (%)” value ([3]; 40° C./75% RH (Open), 2 wks) was 98.67% and the “Total amount of analogous substances (%)” value ([3]; 40° C./75% RH (Open), 2 wks) was 1.33%. For the same molecule, the “Chemical Purity (%)” value ([3]; 40° C./75% RH (Open), 4 wks) was 98.60%, the “Total amount of analogous substances (%)” value ([3]; 40° C./75% RH (Open), 4 wks) was 1.40% and the “Chemical Purity (%)” value ([3]; Initial) was 98.67%. For the same molecule, the “Total amount of analogous substances (%)” value ([3]; Initial) was 1.33%, the “change in the optical purity” value [4] was “No significant change” and the “Solubility” value ([6]; 0.5% HPMC, 37° C.) was 130 µg/mL (≈ 269 µM). The “Solubility” value ([6]; Acetate buffer (50 mM, pH 4.0), 37° C.) was 260 µg/mL (≈ 538 µM), the “Solubility” value ([6]; Second fluid for dissolution test, pH 6.8, 37° C.) was 610 µg/mL (≈ 1260 µM) and the “change on XRD pattern” value ([6]; after 2 hr solubility study) was “No significant change”. The “Chemical Purity (%)” value ([5]; 40° C. 75% RH (Open), 4wks) was 99.69%, the “Total amount of analogous substances (%)” value ([5]; 40° C. 75% RH (Open), 4wks) was 0.31% and the “Chemical Purity (%)” value ([5]; 70° C. (Closed), 2 wks) was 99.67%. For the same molecule, the “Total amount of analogous substances (%)” value ([5]; 70° C. (Closed), 2 wks) was 0.33%, the “Chemical Purity (%)” value ([5]; 70° C. (Closed), 4 wks) was 99.68% and the “Total amount of analogous substances (%)” value ([5]; 70° C. (Closed), 4 wks) was 0.32%. The “Chemical Purity (%)” value ([5]; 80° C. (Closed), 2 wks) was 99.66%, the “Total amount of analogous substances (%)” value ([5]; 80° C. (Closed), 2 wks) was 0.34% and the “Chemical Purity (%)” value ([5]; 80° C. (Closed), 4 wks) was 99.66%. For the same molecule, the “Total amount of analogous substances (%)” value ([5]; 80° C. (Closed), 4 wks) was 0.34%, the “Chemical Purity (%)” value ([5]; Initial) was 99.69% and the “Total amount of analogous substances (%)” value ([5]; Initial) was 0.31%.
